Where a name gives a salt, the structure may show the parent alone.
Assays:
[1] = tested on: bicalutamide resistant human prostate cancer cell line established from LNCaP.FGC (LNCaP-Bic); assay: Growth inhibition of LNCaP-Bic cells, WST-8 assay; type: cell-based; conditions: 120 h, 5 days with test compound
Procedure: (§1) The growth inhibition on a bicalutamide resistant human prostate cancer cell line established from LNCaP.FGC (LNCaP-Bic) (Hobisch A, et al. Prostate. 2006; 66(4):413-20.) was determined by a WST-8 assay according to the method of Singh A K, et al. (Cancer Lett. 1996 Oct. 1; 107(1): 109-15.). In this method, LNCaP-Bic cells were seeded in RPMI 1640 medium containing 10% fetal bovine serum in a 96-well microplate and incubated at 37° C. for 24 hours in the presence of 5% carbon dioxide. Then, the test compound was added and the cells were incubated for another 5 days. After incubation, a 15-μL volume of WST-8 (2-(2-methoxy-4-nitrophenyl)-3-(4-nitrophenyl)-5-(2,4-[…])-2H-tetrazolium, monosodium salt) was added. After the incubation for the time, the color reaction was stopped by adding 15 μL of 1% SDS (sodium dodecyl sulfate) solution and the optical density was determined at the measurement wavelength of 450 nm and the reference wavelength of 630 nm, and the difference was calculated. The cell growth activity in each well was defined as the value determined by subtracting the OD in the control well not containing cells (the difference in absorbance between 450 nm and 630 nm) from that in the test well.
(§2) The 50% inhibitory concentration (IC50 (nM)) of the test compound was determined by comparing the cell growth activity in the well containing the test compound with that of the control not containing the test compound.

[2] = tested on: human prostate (carcinoma) cell line (DU 145); assay: Growth inhibition of DU 145 cells, WST-8 assay; type: cell-based; conditions: 120 h, 5 days with test compound
Procedure: as §1, §2
The growth inhibition on a human prostate (carcinoma) cell line (DU 145) (van Bokhoven A, et al. Prostate. 2003; 57(3):205-25.) was also determined by the above method.

[3] = tested on: human prostate (adenocarcinoma) cell line (VcaP); assay: Growth inhibition of VcaP cells, WST-8 assay; type: cell-based; conditions: 120 h, 5 days with test compound
Procedure: as §1, §2
The growth inhibition on a human prostate (adenocarcinoma) cell line (VcaP) (Korenchuk S, et al. In Vivo. 2001; 15(2):163-8.) was also determined by the above method.

[4] = tested on: human prostate (adenocarcinoma) cell line (PC-3); assay: Growth inhibition of PC-3 cells, WST-8 assay; type: cell-based; conditions: 120 h, 5 days with test compound
Procedure: as §1, §2
The growth inhibition on a human prostate (adenocarcinoma) cell line (PC-3) (van Bokhoven A, et al. Prostate. 2003; 57(3):205-25.) was also determined by the above method.

[5] = tested on: human breast cancer cell line (MDA-MB-468); assay: Growth inhibition of MDA-MB-468 cells, sulforhodamine B method; type: cell-based; conditions: 120 h, 5 days with test compound
Procedure: (§3) Growth inhibition of a human breast cancer cell line (MDA-MB-468) was determined by the sulforhodamine B method based on the method of Skehan P. et al. (J Natl Cancer Inst. 1990 Jul. 4; 82(13): 1107-12). In the study, MDA-MB-468 cells were seeded on DMEM medium containing 10% fetal bovine serum in a 96-well microplate. After 24-h incubation at 37° C. in the presence of 5% carbon dioxide, the test compound was added and the cells were incubated for another 5 days. After incubation, a trichloroacetic acid solution was added to yield the final concentration of 10% and the cells were left to stand at 4° C. for 1 hour to fix. Then, the cells were washed with water to remove the medium and trichloroacetic acid and dried in the air. The dried cells were stored at 4° C. until they were stained with sulforhodamine B. To each well, 1% acetic acid solution containing 0.4% sulforhodamine B was added and left to stand for 20 to 30 minutes at room temperature. After discarding the supernatant, each well was washed with 1% acetic acid solution, and 10 mM Tris([…]) solution was added while stirring to elute the dye taken into the cells. Then, the optical density was determined at the measurement wavelength of 492 nm and the reference wavelength of 690 nm, and the difference was calculated. The cell growth activity in each well was defined as the value determined by subtracting the OD in the control well not containing cells (the difference in absorbance between 492 nm and 690 nm) from that in the test well.
as §2

[6] = tested on: human hepatic cancer cell line (HuH-7); assay: Growth inhibition of HuH-7 cells, sulforhodamine B method; type: cell-based; conditions: Homo sapiens, 120 h, 5 days with test compound
Procedure: as §3, §2
The growth inhibition on a human hepatic cancer cell line (HuH-7) was also determined by the above method.

[7] = tested on: human prostate (carcinoma) cell line (LNCaP.FGC); assay: Growth inhibition of LNCaP.FGC cells, WST-8 assay; type: cell-based; conditions: 120 h, 5 days with test compound
Procedure: as §1, §2
The growth inhibition on a human prostate (carcinoma) cell line (LNCaP.FGC) (van Bokhoven A, et al. Prostate. 2003; 57(3):205-25.) was also determined by the above method.

Compound	IC50 [1]	IC50 [2]	melting point	IC50 [3]	IC50 [4]	IC50 [5]	IC50 [6]	IC50 [7]
Cc1ccccc1COc1ccc(Oc2c(C)cc(/C=C/C(=O)N3CCN(Cc4ccc(CCOc5ccc(F)cc5)cc4)CC3)cc2Cl)nc1.Cl [Example 448, (E)-3-[3-Chloro-5-methyl-4-({5-[(2-methylbenzyl)oxy]pyridin-2-yl}oxy)phenyl]-1-(4-{4-[2-(4-fluorophenoxy)ethyl]benzyl}piperazin-1-yl)prop-2-en-1-one hydrochloride]	< 10 nM	< 10 nM	210.3 to 210.6 °C	< 10 nM	< 10 nM	< 10 nM	< 10 nM	< 10 nM
Cc1cc(/C=C/C(=O)N2CCN(Cc3ccc(CCOc4ccc(C(C)C)cc4)cc3)CC2)cc(Cl)c1Oc1ccc(OCc2ccccc2F)cn1.Cl [Example 454, (E)-3-[3-Chloro-4-({5-[(2-fluorobenzyl)oxy]pyridin-2-yl}oxy)-5-methylphenyl]-1-[4-(4-{2-[4-(propan-2-yl)phenoxy]ethyl}benzyl)piperazin-1-yl]prop-2-en-1-one hydrochloride]	< 10 nM	< 10 nM	188 to 189.5 °C	< 10 nM	< 10 nM	< 10 nM	< 10 nM	< 10 nM
COc1cc(/C=C/C(=O)N2CCN(Cc3ccc(CCOc4ccc(C)cc4)cc3)CC2)ccc1Oc1ccc(OCc2ccccc2Cl)cn1.Cl [Example 482, (E)-3-[4-({5-[(2-Chlorobenzyl)oxy]pyridin-2-yl}oxy)-3-methoxyphenyl]-1-(4-{4-[2-(4-methylphenoxy)ethyl]benzyl}piperazin-1-yl)prop-2-en-1-one hydrochloride]			203.4 to 205.7 °C				< 10 nM	
Cc1ccc(OCCc2ccc(CN3CCN(C(=O)/C=C/c4cc(C)c(Oc5ccc(OCc6cncs6)cn5)c(C)c4)CC3)cc2)cc1.Cl [Example 596, (E)-3-(3,5-Dimethyl-4-{[5-(1,3-thiazol-5-ylmethoxy)pyridin-2-yl]oxy}phenyl)-1-(4-{4-[2-(4-methylphenoxy)ethyl]benzyl}piperazin-1-yl)prop-2-en-1-one hydrochloride]			207 to 207.2 °C				< 10 nM	
Cc1cc(/C=C/C(=O)N2CCN(Cc3ccc(CCOc4ccc(C(C)C)cc4)cc3)CC2)cc(C)c1Oc1ccc(OCc2cscn2)cn1 [Example 600, (E)-3-(3,5-Dimethyl-4-{[5-(1,3-thiazol-4-ylmethoxy)pyridin-2-yl]oxy}phenyl)-1-[4-(4-{2-[4-(propan-2-yl)phenoxy]ethyl}benzyl)piperazin-1-yl]prop-2-en-1-one hydrochloride]	< 10 nM	< 10 nM		< 10 nM	< 10 nM		< 10 nM	< 10 nM
Cc1cc(/C=C/C(=O)N2CCN(Cc3ccc(COc4ccc(OC(C)C)cc4)cc3)CC2)cc(C)c1Oc1ccc(OCc2ccc(C#N)cc2)cn1.Cl [Example 647, 4-({[6-(2,6-Dimethyl-4-{(E)-3-oxo-3-[4-(4-{[4-(propan-2-yloxy)phenoxy]methyl}benzyl)-piperazin-1-yl]prop-1-en-1-yl}phenoxy)pyridin-3-yl]oxy}methyl)benzonitrile hydrochloride]			216.2 to 219.2 °C				< 10 nM	
COc1ccc(Oc2ccc3cc(CN4CCN(C(=O)/C=C/c5cc(C)c(Oc6ccc(OCc7ccccc7Cl)cn6)c(Cl)c5)CC4)ccc3n2)cc1.Cl [Example 675, (E)-3-[3-Chloro-4-({5-[(2-chlorobenzyl)oxy]pyridin-2-yl}oxy)-5-methylphenyl]-1-(4-{[2-(4-methoxyphenoxy)quinolin-6-yl]methyl}piperazin-1-yl)prop-2-en-1-one hydrochloride]			228 to 228.9 °C				< 10 nM	
Cc1cc(/C=C/C(=O)N2CCN(Cc3ccc(Oc4ccc(Cl)cc4)cc3)CC2)cc(C)c1Oc1ccc(OCc2ccc(C#N)cc2)cn1.Cl [Example 692, 4-{[(6-{4-[(E)-3-{4-[4-(4-Chlorophenoxy)benzyl]piperazin-1-yl}-3-oxoprop-1-en-1-yl]-2,6-dimethylphenoxy}pyridin-3-yl)oxy]methyl}benzonitrile hydrochloride]			231.9 to 233.7 °C				< 10 nM	

Now from value to compound:

IC50 [1]	IC50 [2]	melting point	IC50 [3]	IC50 [4]	IC50 [5]	IC50 [6]	IC50 [7]	Compound
< 10 nM	< 10 nM	219.7 to 220.7 °C	< 10 nM	< 10 nM		< 10 nM	< 10 nM	Cc1cc(/C=C/C(=O)N2CCN(Cc3ccc(CCOc4ccc(Cl)cc4)cc3)CC2)cc(C)c1Oc1ccc(OCc2ccc(C#N)cc2)cn1.Cl [Example 558, 4-{[(6-{4-[(E)-3-(4-{4-[2-(4-Chlorophenoxy)ethyl]benzyl}piperazin-1-yl)-3-oxoprop-1-en-1-yl]-2,6-dimethylphenoxy}pyridin-3-yl)oxy]methyl}benzonitrile hydrochloride]
< 10 nM	< 10 nM		< 10 nM	< 10 nM	< 10 nM	< 10 nM	< 10 nM	Cc1cc(/C=C/C(=O)N2CCN(Cc3ccc(CCOc4ccc(C(C)C)cc4)cc3)CC2)cc(Cl)c1Oc1ccc(OCc2ccccc2Cl)cn1 [Example 608, (E)-3-[3-Chloro-4-({5-[(2-chlorobenzyl)oxy]pyridin-2-yl}oxy)-5-methylphenyl]-1-[4-(4-{2-[4-(propan-2-yl)phenoxy]ethyl}benzyl)piperazin-1-yl]prop-2-en-1-one hydrochloride]
		236.1 to 236.6 °C				< 10 nM		C/C(C(=O)N1CCN(Cc2ccc(CCOc3ccc(F)cc3)cc2)CC1)=C(/C)c1cc(C)c(Oc2ccc(OCc3ccc(C)cc3)cn2)c(Cl)c1.O=C(O)C(=O)O [Example 751, (E)-3-[3-Chloro-5-methyl-4-({5-[(4-methylbenzyl)oxy]pyridin-2-yl}oxy)phenyl]-1-(4-{4-[2-(4-fluorophenoxy)ethyl]benzyl}piperazin-1-yl)-2-methylbut-2-en-1-one ethanedioate]
		201.5 to 202 °C				< 10 nM		COc1cccc(OCCc2ccc(CN3CCN(C(=O)/C=C/c4ccc(Oc5ccc(OCc6ccc(F)cc6)cn5)c(Cl)c4)CC3)cc2)c1.Cl [Example 757, (E)-3-[3-chloro-4-({5-[(4-fluorobenzyl)oxy]pyridin-2-yl}oxy)phenyl]-1-(4-{4-[2-(3-methoxyphenoxy)ethyl]benzyl}piperazin-1-yl)prop-2-en-1-one hydrochloride]
